Reference: ChEMBL document CHEMBL1155842, “Imidazole piperazines: SAR and development of a potent class of cyclin-dependent kinase inhibitors with a novel binding mode” (Bioorg Med Chem Lett, 2008)
≈ marks a conversion by molar mass, not a printed value.

Assays:
[1] = molecular target: Cyclin-dependent kinase 2 (Homo sapiens, UniProt P24941); experiment: Inhibition of CDK2/Cyclin E
MCF7 = experiment: cells; settings: Homo sapiens, MCF7, 48 h
Description: Antiproliferative activity against human MCF7 cells after 48 hrs

[2] = Lipophilicity Log D at pH 7.4; settings: buffer
[3] = Protein binding in rat plasma assessed as unbound fraction; format: ADME, cell-free
[4] = Aqueous solubility at pH 7.4; settings: buffer
[5] = Oral bioavailability in rat; format: ADME, organism-based; settings: in vivo
[6] = AUC in rat at 2 mg/kg, po; format: ADME, organism-based; design: dose 2 mg/kg, route oral; settings: plasma
[7] = Oral bioavailability in dog; format: ADME, organism-based, Canis lupus familiaris; settings: in vivo
[8] = Plasma clearance in rat; format: ADME, organism-based
[9] = Volume of distribution at steady state in rat; format: ADME, organism-based; settings: in vivo, read-out: Vdss
SW-620 [10] = experiment: Antitumor activity against human SW620 cells xenografted nude mouse assessed as tumor growth inhibition at 7.5 mg/kg, po once daily for 28 days; settings: SW-620, po, 672 h, read-out: INH
[11] = Plasma clearance in dog; format: ADME, organism-based, Canis lupus familiaris
[12] = Volume of distribution at steady state in dog; format: ADME, organism-based, Canis lupus familiaris; settings: in vivo, read-out: Vdss
[13] = molecular target: Voltage-gated inwardly rectifying potassium channel KCNH2 (Homo sapiens, UniProt Q12809)
Sequence of Voltage-gated inwardly rectifying potassium channel KCNH2 (Q12809 whole entry): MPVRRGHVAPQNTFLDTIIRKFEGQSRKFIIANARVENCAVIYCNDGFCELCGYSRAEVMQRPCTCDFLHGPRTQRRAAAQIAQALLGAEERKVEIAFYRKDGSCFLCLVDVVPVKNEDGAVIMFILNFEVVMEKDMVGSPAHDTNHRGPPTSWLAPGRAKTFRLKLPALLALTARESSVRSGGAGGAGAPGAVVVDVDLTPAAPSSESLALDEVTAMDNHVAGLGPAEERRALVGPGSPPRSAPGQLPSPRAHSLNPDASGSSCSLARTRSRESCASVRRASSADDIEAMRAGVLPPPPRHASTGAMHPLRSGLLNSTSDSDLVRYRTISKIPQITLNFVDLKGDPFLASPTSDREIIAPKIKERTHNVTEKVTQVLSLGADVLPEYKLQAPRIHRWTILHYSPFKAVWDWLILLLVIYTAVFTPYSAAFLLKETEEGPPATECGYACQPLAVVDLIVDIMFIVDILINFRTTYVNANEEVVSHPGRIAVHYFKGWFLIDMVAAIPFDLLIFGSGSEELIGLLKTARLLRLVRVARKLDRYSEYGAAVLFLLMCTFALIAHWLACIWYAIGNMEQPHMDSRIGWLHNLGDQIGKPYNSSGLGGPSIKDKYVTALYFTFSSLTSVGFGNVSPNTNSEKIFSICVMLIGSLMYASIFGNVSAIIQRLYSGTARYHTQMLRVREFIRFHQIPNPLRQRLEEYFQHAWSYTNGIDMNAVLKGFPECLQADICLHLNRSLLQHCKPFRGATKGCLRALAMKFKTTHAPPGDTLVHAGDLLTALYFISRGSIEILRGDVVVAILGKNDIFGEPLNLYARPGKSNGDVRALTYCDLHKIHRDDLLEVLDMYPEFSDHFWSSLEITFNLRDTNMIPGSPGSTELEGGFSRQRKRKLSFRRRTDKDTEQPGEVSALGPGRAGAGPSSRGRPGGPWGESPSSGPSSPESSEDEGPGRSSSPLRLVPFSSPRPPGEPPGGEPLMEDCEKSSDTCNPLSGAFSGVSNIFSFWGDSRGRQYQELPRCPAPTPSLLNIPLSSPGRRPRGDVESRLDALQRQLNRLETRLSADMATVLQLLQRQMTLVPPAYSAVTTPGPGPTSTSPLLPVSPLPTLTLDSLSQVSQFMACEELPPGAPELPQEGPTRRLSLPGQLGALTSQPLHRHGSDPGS

SW-620 [14] = experiment: animal or person; settings: Mus musculus, SW-620, po, 672 h, read-out: INH
Description: Antitumor activity against human SW620 cells xenografted nude mouse assessed as tumor growth inhibition at 12.5 mg/kg, po once daily for 28 days

| Structure (SMILES) | IC50 [1] [nM] | IC50 (MCF7) [nM] | logD [2] | solubility [4] [µM] | AUC [6] [µM·h] | further results |
| --- | --- | --- | --- | --- | --- | --- |
| COCCS(=O)(=O)N1CCN(c2ccc(Nc3nccc(-c4cnc(C)n4C(C)C)n3)cc2)CC1 | < 3 | 93 |  |  |  |  |
| CC(=O)N1CCN(c2ccc(Nc3nccc(-c4cnc(C)n4C(C)C)n3)cc2)CC1 | < 3 | 145 |  |  |  |  |
| COc1ccc(Nc2nccc(-c3cnc(C)n3C(C)C)n2)cc1 | 8 | 72 |  |  |  |  |
| CC(=O)NC1CN(c2ccc(Nc3ncc(F)c(-c4cnc(C)n4C(C)C)n3)cc2)C1 | 0.5 |  | 2.8 | 120 (≈ 50.8 µg/mL) |  | fraction unbound [3]: 0.05 |
| Cc1ncc(-c2ccnc(Nc3ccc(Cl)cc3)n2)n1C(C)C | < 3 | 72 |  |  |  |  |
| Cc1ncc(-c2ccnc(Nc3ccc(F)cc3)n2)n1C(C)C | 3 | 100 |  |  |  |  |
| Cc1ncc(-c2ccnc(Nc3ccc(C#N)cc3)n2)n1C(C)C | < 3 | 70 |  |  |  |  |
| Cc1ncc(-c2ccnc(Nc3ccc(N4CCN(C(=O)CO)CC4)cc3)n2)n1C(C)C |  |  |  |  | 0.4 | bioavailability [5]: 59%; fraction unbound [3]: 0.22; bioavailability [7]: 79%; clearance [8]: 15 mL/min/kg; Vd [9]: 2.5 L/kg; inhibition in vivo at 7.5 mg/kg (SW-620 [10]): 80%; clearance [11]: 19 mL/min/kg; Vd [12]: 3.4 L/kg |
| Cc1ncc(-c2ccnc(Nc3ccc(N4CCN(S(C)(=O)=O)CC4)cc3)n2)n1C(C)C | < 3 | 72 | 2.6 | 9 (≈ 4.1 µg/mL) | 0.08 | fraction unbound [3]: 0.08; IC50 [13]: 5.5 µM |
| Cc1ncc(-c2nc(Nc3ccc(N4CCOCC4)cc3)ncc2F)n1C(C)C | 8 | 110 | 3 | 120 (≈ 47.6 µg/mL) | 0.19 | bioavailability [5]: 34%; bioavailability [7]: 3%; IC50 [13]: 11 µM; clearance [8]: 26 mL/min/kg; Vd [9]: 1.3 L/kg; clearance [11]: 140 mL/min/kg; Vd [12]: 2.9 L/kg |
| Cc1ncc(-c2ccnc(Nc3ccc(N4CCN(C(=O)[C@H](C)O)CC4)cc3)n2)n1C(C)C | 17 | 220 |  |  | 0.16 | IC50 [13]: > 24 µM |
| Cc1ncc(-c2ccnc(Nc3ccc(N4CCN(S(=O)(=O)CCN(C)C)CC4)cc3)n2)n1C(C)C | 3 | < 39 | 2.5 |  |  | IC50 [13]: 18 µM |
| Cc1ncc(-c2ccnc(Nc3ccc(N4CCOCC4)cc3)n2)n1C(C)C | 9 | 290 | 2.9 | 56 (≈ 21.2 µg/mL) | 0.16 |  |
| CCN(CC)CC(=O)N1CCN(c2ccc(Nc3nccc(-c4cnc(C)n4C(C)C)n3)cc2)CC1 |  | < 22 |  | > 3700 |  |  |
| COCCNS(=O)(=O)c1ccc(Nc2nccc(-c3cnc(C)n3C(C)C)n2)cc1 |  | 45 |  |  |  |  |
| Cc1ncc(-c2ccnc(Nc3ccc(N(C)C)cc3)n2)n1C(C)C | 24 | 68 |  |  |  |  |
| CC(=O)N[C@@H]1CCN(c2ccc(Nc3ncc(F)c(-c4cnc(C)n4C(C)C)n3)cc2)C1 | > 0.3 | 140 |  |  |  |  |
| Cc1ncc(-c2nc(Nc3ccc(N4CCN(C(=O)CO)CC4)cc3)ncc2F)n1C(C)C | 6 | 75 | 2.2 | 160 (≈ 72.6 µg/mL) | 0.17 | bioavailability [5]: 67%; inhibition in vivo at 12.5 mg/kg (SW-620 [14]): 89%; bioavailability [7]: 31%; clearance [8]: 16 mL/min/kg; Vd [9]: 1 L/kg; clearance [11]: 24 mL/min/kg; Vd [12]: 3.5 L/kg |
| Cc1ncc(-c2ccnc(Nc3ccc(N4CCN(C(=O)CN(C)C)CC4)cc3)n2)n1C(C)C | 16 | < 27 | 3.3 | > 3400 |  | fraction unbound [3]: 0.4; IC50 [13]: > 32 µM |
| Cc1ncc(-c2nc(Nc3ccc(N4CCC[C@H]4C(=O)N(C)C)cc3)ncc2F)n1C(C)C | 46 |  |  |  |  |  |
